{"source": "patent US20050009893A1", "about": "“Treatment of high blood pressure during the acute phase of a stroke” (Solvay Pharmaceuticals GmbH, priority 2001, published 2005)", "assay": "ACCESS study (acute candesartan cilexetil evaluation in stroke survivors): early antihypertensive treatment after acute stroke versus placebo", "format": "in vivo", "conditions": "342 enrolled stroke patients", "from_the_text": "In order to clarify the question, the ACCESS study (acute candesarten cilexetil evaluation in stroke survivors) was conceived, which has now been completed.\nThe rational basis of the ACCESS study was the question whether early treatment of elevated blood pressure values in stroke treatment using a substance which affects the renin-angiotensin system in a blocking manner, could reduce the morbidity, mortality and neurological deficits resulting from such strokes. The main question posed related to the use of early antihypertensive treatment of patients with elevated blood pressure values after a stroke. […]\nAfter enrollment of the patients in the study, a randomized therapy with candesartancilexetil or placebo was carried out. Depending upon the measured blood pressure values and patient specific criteria, the therapy was begun with once daily administration of one half to one tablet (corresponding to from 4 to 8 mg candesartancilexetil or placebo). […]", "data": [{"smiles": "CCOc1nc2cccc(C(=O)O)c2n1Cc1ccc(-c2ccccc2-c2nnn[nH]2)cc1", "note": "[candesartan]", "values": [{"measurement": "cardiovascular end point (number of events) in the course of a twelve month observation period", "setting": "early treatment from 72 hours up to and including seven days after the stroke, placebo group first treated after one week (30 events)", "result": 17}, {"measurement": "difference with respect to the cardiovascular end point in favor of early treatment versus placebo group", "setting": "twelve month observation period, 17 vs. 30", "result": "about 43%"}]}]}
